# Data as given in ChEMBL document CHEMBL3739348, “Novel pyrrole derivatives as selective CHK1 inhibitors: design, regioselective synthesis and molecular modeling” (Medchemcomm, 2015).
# How the values were obtained:
# [1] = target: Insulin receptor (Homo sapiens) (UniProt P06213); assay: Inhibition of InsR (unknown origin) at 30 uM by microfluidic assay relative to control
# [2] = target: Mitogen-activated protein kinase 1 (Homo sapiens) (UniProt P28482); assay: Inhibition of Erk2 (unknown origin) at 30 uM by microfluidic assay relative to control
# [3] = target: T1, MAP kinase-activated protein kinase 5 (Homo sapiens) (UniProt Q8IW41); assay: Inhibition of MAPKAPK5 (unknown origin) at 30 uM by microfluidic assay relative to control
# T1 sequence (whole entry): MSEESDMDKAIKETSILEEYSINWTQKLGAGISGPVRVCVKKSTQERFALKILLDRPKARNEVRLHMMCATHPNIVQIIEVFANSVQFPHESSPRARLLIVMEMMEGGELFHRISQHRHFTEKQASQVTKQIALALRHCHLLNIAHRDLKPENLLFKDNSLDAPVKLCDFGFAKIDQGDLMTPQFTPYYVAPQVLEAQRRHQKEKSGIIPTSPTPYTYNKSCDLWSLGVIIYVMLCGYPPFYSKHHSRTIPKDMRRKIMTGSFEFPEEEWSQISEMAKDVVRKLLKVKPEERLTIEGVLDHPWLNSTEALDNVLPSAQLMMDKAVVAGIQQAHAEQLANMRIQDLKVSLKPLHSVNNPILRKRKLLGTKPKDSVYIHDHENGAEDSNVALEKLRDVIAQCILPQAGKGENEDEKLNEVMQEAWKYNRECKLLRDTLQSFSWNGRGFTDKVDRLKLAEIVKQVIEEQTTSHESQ
# [4] = target: Proto-oncogene tyrosine-protein kinase Src (Homo sapiens) (UniProt P12931); assay: Inhibition of SRC (unknown origin) at 30 uM by microfluidic assay relative to control
# [5] = target: Tyrosine-protein kinase Fyn (Homo sapiens) (UniProt P06241); assay: Inhibition of FYN (unknown origin) at 30 uM by microfluidic assay relative to control
# [6] = target: RAC-beta serine/threonine-protein kinase (Homo sapiens) (UniProt P31751); assay: Inhibition of AKT2 (unknown origin) at 30 uM by microfluidic assay relative to control
# [7] = target: Tyrosine-protein kinase Lyn (Homo sapiens) (UniProt P07948); assay: Inhibition of LYN (unknown origin) at 30 uM by microfluidic assay relative to control
# [8] = target: Mitogen-activated protein kinase 3 (Homo sapiens) (UniProt P27361); assay: Inhibition of Erk1 (unknown origin) at 30 uM by microfluidic assay relative to control
# [9] = target: T2, Vascular endothelial growth factor receptor 2 (Homo sapiens, UniProt P35968); assay: Inhibition of VEGFR-2 (unknown origin) at 30 uM by microfluidic assay relative to control
# [10] = target: Glycogen synthase kinase-3 (Homo sapiens) (UniProt P49840+P49841); assay: Inhibition of GSK3 (unknown origin) at 30 uM by microfluidic assay relative to control; type: protein assay
# [11] = target: Ribosomal protein S6 kinase alpha-5 (Homo sapiens) (UniProt O75582); assay: Inhibition of MSK1 (unknown origin) at 30 uM by microfluidic assay relative to control
# [12] = target: Serine/threonine-protein kinase Chk2 (Homo sapiens) (UniProt O96017); assay: Inhibition of CHK2 (unknown origin) at 30 uM by microfluidic assay relative to control
# [13] = target: T2, Vascular endothelial growth factor receptor 2; assay: Inhibition of VEGFR-2 (unknown origin) by microfluidic assay relative to control
# [14] = target: Tyrosine-protein kinase Lck (Homo sapiens) (UniProt P06239); assay: Inhibition of LCK (unknown origin) at 30 uM by microfluidic assay relative to control
# [15] = target: MAP kinase-activated protein kinase 2 (Homo sapiens) (UniProt P49137); assay: Inhibition of MK2 (unknown origin) at 30 uM by microfluidic assay relative to control
# [16] = target: Ribosomal protein S6 kinase alpha-1 (Homo sapiens) (UniProt Q15418); assay: Inhibition of RSK1 (unknown origin) at 30 uM by microfluidic assay relative to control
# [17] = target: T3, Serine/threonine-protein kinase D2 (Homo sapiens) (UniProt Q9BZL6); assay: Inhibition of PKD2 (unknown origin) at 30 uM by microfluidic assay relative to control
# T3 sequence (whole entry): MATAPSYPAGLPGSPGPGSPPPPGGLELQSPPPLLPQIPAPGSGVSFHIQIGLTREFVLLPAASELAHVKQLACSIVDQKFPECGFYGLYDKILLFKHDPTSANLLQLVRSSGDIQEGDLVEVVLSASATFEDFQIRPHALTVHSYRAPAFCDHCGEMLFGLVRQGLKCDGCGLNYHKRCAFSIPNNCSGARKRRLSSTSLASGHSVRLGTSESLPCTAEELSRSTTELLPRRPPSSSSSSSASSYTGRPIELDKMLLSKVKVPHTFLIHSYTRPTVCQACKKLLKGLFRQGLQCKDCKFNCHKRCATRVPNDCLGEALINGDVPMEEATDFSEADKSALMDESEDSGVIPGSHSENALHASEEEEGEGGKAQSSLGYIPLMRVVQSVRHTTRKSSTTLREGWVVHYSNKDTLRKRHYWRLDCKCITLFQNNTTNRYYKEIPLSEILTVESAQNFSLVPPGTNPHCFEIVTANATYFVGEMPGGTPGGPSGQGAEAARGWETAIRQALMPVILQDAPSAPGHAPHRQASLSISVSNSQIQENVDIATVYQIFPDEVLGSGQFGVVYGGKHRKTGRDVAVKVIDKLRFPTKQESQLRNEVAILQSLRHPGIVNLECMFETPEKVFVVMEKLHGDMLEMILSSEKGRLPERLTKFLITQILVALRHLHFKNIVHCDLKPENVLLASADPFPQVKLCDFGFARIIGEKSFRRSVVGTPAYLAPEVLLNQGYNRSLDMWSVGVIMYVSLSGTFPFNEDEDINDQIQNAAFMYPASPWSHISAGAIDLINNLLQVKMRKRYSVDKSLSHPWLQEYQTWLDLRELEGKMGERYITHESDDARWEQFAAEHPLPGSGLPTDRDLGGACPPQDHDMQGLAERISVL
# Chain of Ribosomal protein S6 kinase alpha-5 (Homo sapiens) (O75582 whole entry, looked up): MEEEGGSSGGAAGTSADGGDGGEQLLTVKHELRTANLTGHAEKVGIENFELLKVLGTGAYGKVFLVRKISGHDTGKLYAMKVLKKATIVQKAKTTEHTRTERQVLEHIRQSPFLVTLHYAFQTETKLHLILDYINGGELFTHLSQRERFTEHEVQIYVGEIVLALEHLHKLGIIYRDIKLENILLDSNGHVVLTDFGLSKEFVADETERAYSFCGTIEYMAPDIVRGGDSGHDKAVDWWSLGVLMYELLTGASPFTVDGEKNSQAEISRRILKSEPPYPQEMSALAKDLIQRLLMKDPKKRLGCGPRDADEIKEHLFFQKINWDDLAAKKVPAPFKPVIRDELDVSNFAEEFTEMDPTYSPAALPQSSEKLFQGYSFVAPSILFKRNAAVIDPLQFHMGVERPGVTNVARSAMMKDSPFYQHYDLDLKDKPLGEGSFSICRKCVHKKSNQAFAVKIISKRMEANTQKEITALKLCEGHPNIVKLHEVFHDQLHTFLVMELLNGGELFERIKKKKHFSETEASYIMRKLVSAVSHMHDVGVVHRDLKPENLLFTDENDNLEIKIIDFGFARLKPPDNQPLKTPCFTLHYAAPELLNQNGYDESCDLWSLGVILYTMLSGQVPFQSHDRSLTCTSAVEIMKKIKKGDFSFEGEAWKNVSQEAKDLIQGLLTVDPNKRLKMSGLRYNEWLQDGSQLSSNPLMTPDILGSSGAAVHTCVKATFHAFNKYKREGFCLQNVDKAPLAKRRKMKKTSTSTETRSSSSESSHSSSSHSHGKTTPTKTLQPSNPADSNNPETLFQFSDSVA
# Chain of Tyrosine-protein kinase Lyn (Homo sapiens) (P07948 2-512 limits assumed): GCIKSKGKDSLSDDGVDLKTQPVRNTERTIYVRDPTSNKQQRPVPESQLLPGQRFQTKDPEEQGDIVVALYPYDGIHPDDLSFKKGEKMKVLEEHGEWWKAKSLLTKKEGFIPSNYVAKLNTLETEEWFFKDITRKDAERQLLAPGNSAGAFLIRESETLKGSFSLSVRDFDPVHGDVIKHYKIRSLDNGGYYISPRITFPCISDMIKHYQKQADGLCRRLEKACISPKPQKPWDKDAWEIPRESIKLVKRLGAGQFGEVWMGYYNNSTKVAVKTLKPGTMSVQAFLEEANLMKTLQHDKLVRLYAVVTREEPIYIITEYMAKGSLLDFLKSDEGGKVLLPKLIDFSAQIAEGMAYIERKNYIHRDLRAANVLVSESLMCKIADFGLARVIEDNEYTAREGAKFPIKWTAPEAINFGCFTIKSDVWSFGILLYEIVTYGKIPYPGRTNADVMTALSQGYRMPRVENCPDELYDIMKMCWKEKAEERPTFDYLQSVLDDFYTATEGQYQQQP
# Chain of MAP kinase-activated protein kinase 2 (Homo sapiens) (P49137 whole entry, looked up): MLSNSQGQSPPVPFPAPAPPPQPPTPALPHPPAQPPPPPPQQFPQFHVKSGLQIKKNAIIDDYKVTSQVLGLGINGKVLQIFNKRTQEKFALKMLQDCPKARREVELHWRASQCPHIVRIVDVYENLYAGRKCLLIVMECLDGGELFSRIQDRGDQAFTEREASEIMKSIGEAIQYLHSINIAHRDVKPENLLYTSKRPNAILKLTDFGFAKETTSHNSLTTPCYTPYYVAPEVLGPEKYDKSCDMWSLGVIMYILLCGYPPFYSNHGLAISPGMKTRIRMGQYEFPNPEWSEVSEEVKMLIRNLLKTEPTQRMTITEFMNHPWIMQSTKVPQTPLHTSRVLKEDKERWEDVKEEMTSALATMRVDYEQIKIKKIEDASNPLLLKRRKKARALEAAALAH
# Chain of Serine/threonine-protein kinase Chk2 (Homo sapiens) (O96017 whole entry): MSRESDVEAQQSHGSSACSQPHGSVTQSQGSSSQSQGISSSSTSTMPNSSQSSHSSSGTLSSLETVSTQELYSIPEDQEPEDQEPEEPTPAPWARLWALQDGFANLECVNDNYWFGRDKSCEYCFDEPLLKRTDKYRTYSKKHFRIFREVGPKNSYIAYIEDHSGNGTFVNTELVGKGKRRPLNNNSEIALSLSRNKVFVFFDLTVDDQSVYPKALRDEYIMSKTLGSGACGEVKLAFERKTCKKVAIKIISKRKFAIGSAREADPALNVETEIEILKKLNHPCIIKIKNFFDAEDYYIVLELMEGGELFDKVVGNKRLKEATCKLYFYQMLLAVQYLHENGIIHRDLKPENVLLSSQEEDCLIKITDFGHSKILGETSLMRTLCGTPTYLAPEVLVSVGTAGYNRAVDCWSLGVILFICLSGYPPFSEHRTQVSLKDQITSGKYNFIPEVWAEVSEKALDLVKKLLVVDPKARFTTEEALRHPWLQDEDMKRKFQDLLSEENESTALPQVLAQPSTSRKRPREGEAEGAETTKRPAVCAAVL
# Chain of Tyrosine-protein kinase Lck (Homo sapiens) (P06239 2-509 limits assumed): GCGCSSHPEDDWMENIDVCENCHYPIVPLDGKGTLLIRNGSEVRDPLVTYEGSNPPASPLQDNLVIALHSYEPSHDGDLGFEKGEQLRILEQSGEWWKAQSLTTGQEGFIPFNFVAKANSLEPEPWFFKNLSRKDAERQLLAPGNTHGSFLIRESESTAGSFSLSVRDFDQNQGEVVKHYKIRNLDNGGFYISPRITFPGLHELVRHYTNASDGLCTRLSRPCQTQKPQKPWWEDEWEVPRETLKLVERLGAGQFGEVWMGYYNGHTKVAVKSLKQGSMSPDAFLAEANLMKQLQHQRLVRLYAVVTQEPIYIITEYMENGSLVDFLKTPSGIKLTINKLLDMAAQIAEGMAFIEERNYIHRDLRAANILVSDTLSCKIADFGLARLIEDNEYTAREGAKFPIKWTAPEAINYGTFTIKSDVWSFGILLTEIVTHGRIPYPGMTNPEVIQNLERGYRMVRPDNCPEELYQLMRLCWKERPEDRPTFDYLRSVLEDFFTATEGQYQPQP
# Chain of Insulin receptor (Homo sapiens) (P06213 28-758 limits assumed): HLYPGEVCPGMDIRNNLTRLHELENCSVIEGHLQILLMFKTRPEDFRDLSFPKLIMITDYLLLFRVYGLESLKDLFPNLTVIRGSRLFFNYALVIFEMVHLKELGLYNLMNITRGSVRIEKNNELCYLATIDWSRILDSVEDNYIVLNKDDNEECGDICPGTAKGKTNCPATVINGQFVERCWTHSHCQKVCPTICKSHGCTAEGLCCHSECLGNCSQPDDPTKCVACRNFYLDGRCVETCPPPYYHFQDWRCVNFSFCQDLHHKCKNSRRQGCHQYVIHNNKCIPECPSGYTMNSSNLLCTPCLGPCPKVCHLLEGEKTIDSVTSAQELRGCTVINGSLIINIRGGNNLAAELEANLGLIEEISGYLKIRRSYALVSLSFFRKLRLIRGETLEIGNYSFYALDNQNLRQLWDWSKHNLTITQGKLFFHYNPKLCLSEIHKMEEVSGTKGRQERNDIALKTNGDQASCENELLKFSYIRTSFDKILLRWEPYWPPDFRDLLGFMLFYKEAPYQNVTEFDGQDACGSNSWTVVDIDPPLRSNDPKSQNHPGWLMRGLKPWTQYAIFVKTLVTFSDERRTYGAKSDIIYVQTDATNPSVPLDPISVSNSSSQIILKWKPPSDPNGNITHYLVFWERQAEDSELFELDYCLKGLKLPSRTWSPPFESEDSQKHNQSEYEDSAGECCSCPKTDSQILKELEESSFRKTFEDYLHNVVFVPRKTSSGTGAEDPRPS
# Chain of Insulin receptor (Homo sapiens) (P06213 763-1382 limits assumed): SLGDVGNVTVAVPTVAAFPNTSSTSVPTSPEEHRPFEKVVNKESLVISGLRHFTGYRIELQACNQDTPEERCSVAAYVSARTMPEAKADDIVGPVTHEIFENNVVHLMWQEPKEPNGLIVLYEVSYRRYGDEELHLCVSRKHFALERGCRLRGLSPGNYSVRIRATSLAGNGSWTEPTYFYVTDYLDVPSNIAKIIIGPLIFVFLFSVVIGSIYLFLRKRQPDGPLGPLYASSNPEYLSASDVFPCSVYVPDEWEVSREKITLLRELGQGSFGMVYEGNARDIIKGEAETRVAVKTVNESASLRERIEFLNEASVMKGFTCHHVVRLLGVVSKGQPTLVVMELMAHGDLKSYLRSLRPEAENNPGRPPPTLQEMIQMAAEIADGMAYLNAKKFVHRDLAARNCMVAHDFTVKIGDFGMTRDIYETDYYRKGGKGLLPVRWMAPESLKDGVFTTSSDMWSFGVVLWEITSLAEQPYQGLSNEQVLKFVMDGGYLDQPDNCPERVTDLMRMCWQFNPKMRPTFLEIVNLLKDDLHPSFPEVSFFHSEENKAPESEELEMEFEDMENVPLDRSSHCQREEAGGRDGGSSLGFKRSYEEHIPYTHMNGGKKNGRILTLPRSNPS
# Chain of Tyrosine-protein kinase Fyn (Homo sapiens) (P06241 2-537 limits assumed): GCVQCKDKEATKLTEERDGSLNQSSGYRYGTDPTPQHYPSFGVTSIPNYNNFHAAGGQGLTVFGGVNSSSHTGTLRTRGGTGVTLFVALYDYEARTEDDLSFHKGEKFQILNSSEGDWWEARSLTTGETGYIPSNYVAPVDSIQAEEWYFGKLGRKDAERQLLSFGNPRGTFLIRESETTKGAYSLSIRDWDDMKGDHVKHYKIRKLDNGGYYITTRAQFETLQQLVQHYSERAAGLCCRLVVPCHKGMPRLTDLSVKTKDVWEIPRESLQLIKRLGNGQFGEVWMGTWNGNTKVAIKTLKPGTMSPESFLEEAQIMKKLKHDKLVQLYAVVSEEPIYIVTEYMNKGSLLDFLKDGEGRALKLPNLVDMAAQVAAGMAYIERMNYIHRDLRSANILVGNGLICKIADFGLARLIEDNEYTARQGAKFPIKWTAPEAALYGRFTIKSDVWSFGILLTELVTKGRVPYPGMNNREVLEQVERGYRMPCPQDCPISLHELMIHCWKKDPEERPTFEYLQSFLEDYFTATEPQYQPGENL
# Chain of Mitogen-activated protein kinase 1 (Homo sapiens) (P28482 whole entry): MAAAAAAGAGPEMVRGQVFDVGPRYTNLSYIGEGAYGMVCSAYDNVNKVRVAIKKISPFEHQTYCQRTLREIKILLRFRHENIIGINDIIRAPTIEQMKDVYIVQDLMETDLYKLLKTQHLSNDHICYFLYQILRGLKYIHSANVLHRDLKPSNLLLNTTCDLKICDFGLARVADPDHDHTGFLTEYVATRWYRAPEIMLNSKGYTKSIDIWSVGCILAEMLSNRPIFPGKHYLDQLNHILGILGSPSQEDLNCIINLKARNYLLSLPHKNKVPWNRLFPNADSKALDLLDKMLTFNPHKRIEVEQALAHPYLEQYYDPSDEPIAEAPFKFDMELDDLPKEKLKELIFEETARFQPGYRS
inhibition [1] [%],inhibition [2] [%],inhibition [3] [%],inhibition [4] [%],inhibition [5] [%],inhibition [6] [%],inhibition [7] [%],inhibition [8] [%],inhibition [9] [%],inhibition [10] [%],inhibition [11] [%],inhibition [12] [%],IC50 [13] [µM],inhibition [14] [%],inhibition [15] [%],inhibition [16] [%],inhibition [17] [%],Compound
12,23,32,23,12,56,5,8,100,43,34,24,3.45,32,19,36,32,Cc1[nH]c(-c2ccccc2)c(-c2ccccc2)c1-c1nnc(O)c2nn(-c3ccccc3)cc12
32,21,54,21,21,56,34,3,100,2,34,55,4.56,32,76,4,54,Cc1[nH]c(-c2ccccc2)c(-c2ccccc2)c1C(=O)c1coc2c1cc(O)c1ccccc12
33,24,54,33,21,86,24,8,100,23,87,4,3.45,25,26,2,65,Cc1[nH]c(-c2ccccc2)c(-c2ccccc2)c1C(=O)c1cn(-c2ccccc2)nc1C(=O)Nc1ccccc1
